ChEMBL document CHEMBL5380796, “Small Molecular Mimetics of Antimicrobial Peptides as a Promising Therapy To Combat Bacterial Resistance” (J Med Chem, 2023)
≈ marks a conversion by molar mass, not a printed value. Each block holds one molecule with its values, some of them ahead of it. Non-standard residues stand in square brackets, D forms with d. Residues, ends and D or L forms follow the SMILES beside them. Dip = N[C@H](C(=O)O)C(c1ccccc1)c1ccccc1; 2Nal = N[C@@H](Cc1ccc2ccccc2c1)C(=O)O

Legend:
Staphylococcus aureus [1] = test: Antibacterial activity against Staphylococcus aureus assessed as bacterial growth inhibition; type: functional
Escherichia coli [2] = test: Antibacterial activity against Escherichia coli assessed as bacterial growth inhibition; type: functional
Staphylococcus aureus [3] = test: Antibacterial activity against Staphylococcus aureus ATCC 25923 assessed as bacterial growth inhibition by microdilution assay; type: functional
Staphylococcus aureus [4] = test: Antibacterial activity against Staphylococcus aureus ATCC 25923 assessed as bacterial growth inhibition; type: functional
Micrococcus luteus = test: Antibacterial activity against Micrococcus luteus DSM 1790 assessed as bacterial growth inhibition by microdilution assay; type: functional
Escherichia coli [5] = test: Antibacterial activity against Escherichia coli assessed as bacterial growth inhibition measured after 24 hrs by CLSI based micro broth double dilution method; type: functional
Staphylococcus aureus [6] = test: Antibacterial activity against Staphylococcus aureus assessed as bacterial growth inhibition measured after 24 hrs by CLSI based micro broth double dilution method; type: functional
Clostridioides difficile = test: Antibacterial activity against Clostridium difficile UK6 assessed as bacterial growth inhibition; type: functional
Pseudomonas aeruginosa [7] = test: Antibacterial activity against Pseudomonas aeruginosa ATCC 27853 assessed as bacterial growth inhibition; type: functional; settings: ATCC27853
Staphylococcus aureus [8] = test: Antibacterial activity against methicillin-resistant Staphylococcus aureus ATCC 33591 assessed as bacterial growth inhibition; type: functional
Klebsiella pneumoniae [9] = test: Antibacterial activity against Klebsiella pneumoniae ATCC 13383 assessed as bacterial growth inhibition; type: functional
[10] = test system: Staphylococcus epidermidis; test: Antibacterial activity against methicillin-resistant Staphylococcus epidermidis RP62A assessed as bacterial growth inhibition; type: functional
Enterococcus = test: Antibacterial activity against […] assessed as bacterial growth inhibition; type: functional
Escherichia coli [11] = test: Antibacterial activity against Escherichia coli ATCC 25922 assessed as bacterial growth inhibition; type: functional
[12] = test system: Staphylococcus epidermidis; test: Antibacterial activity against methicillin-resistant Staphylococcus epidermidis RP62A assessed as bacterial growth inhibition incubated for 12 to 16 hrs by microtiter plate reader based analysis; type: functional; settings: time 12-16 hrs
[13] = Hemolytic activity in human RBC incubated for 10 mins by absorbance based analysis; type: toxicity, cell-based, Erythrocyte; settings: red blood cells (erythrocytes)
Escherichia coli [14] = test: Antibacterial activity against Escherichia coli ATCC 25922 assessed as bacterial growth inhibition incubated for 12 to 16 hrs by microtiter plate reader based analysis; type: functional; settings: time 12-16 hrs
Pseudomonas aeruginosa [15] = test: Antibacterial activity against Pseudomonas aeruginosa ATCC 27853 assessed as bacterial growth inhibition incubated for 12 to 16 hrs by microtiter plate reader based analysis; type: functional; settings: time 12-16 hrs
Enterococcus faecalis = test: Antibacterial activity against vancomycin- resistant Enterococcus faecalis ATCC 700802 assessed as bacterial growth inhibition incubated for 12 to 16 hrs by microtiter plate reader based analysis; type: functional; settings: ATCC700802, time 12-16 hrs
Staphylococcus aureus [16] = test: Antibacterial activity against methicillin-resistant Staphylococcus aureus ATCC 33592 assessed as bacterial growth inhibition incubated for 12 to 16 hrs by microtiter plate reader based analysis; type: functional; settings: time 12-16 hrs
Pseudomonas aeruginosa [17] = test: Antibacterial activity against Pseudomonas aeruginosa assessed as bacterial growth inhibition; type: functional
Klebsiella pneumoniae [18] = test: Antibacterial activity against Klebsiella pneumoniae assessed as bacterial growth inhibition; type: functional
[19] = Cytotoxicity against human HepG2 cells assessed as reduction in cell viability; type: toxicity, cell-based
[20] = Cytotoxicity against mouse 3T3 cells assessed as reduction in cell viability; type: toxicity, cell-based; settings: NIH3T3 cells
Staphylococcus aureus [21] = test: Antibacterial activity against methicillin-resistant Staphylococcus aureus assessed as bacterial growth inhibition by broth microdilution method; type: functional
Escherichia coli [22] = test: Antibacterial activity against Escherichia coli assessed as bacterial growth inhibition by broth microdilution method; type: functional

Molecule: CC(C)CCOC(=O)[C@H](CC(C)C)NC(=O)[C@@H](CCCNC(=N)N)NC(=O)[C@@H](CCCCN)NC(=O)COc1ccc2ccccc2c1-c1c(OCCC(C)C)ccc2ccccc12
MIC (Staphylococcus aureus [1]): 2 µg/mL (≈ 2.27 µM)

Molecule: CC(C)(C)c1ccc(CC(N)C(=O)NC(CCCNC(=N)N)C(=O)Nc2cc(NC(=O)C(CCCNC(=N)N)NC(=O)C(N)Cc3ccc(C(C)(C)C)cc3)cc(C(N)=O)c2)cc1 (centres undefined)
MIC (Staphylococcus aureus [3]): 1.9 µg/mL
MIC (Staphylococcus aureus [4]): 1.9 µg/mL (≈ 2.18 µM)
MIC (Micrococcus luteus): 1.9 µg/mL

Molecule: CCCCCCN1C(=N)N(CC(=O)Nc2cccc(NC(=O)CN3C[C@H](Cc4ccccc4)N(CCCCCC)C3=N)c2)C[C@@H]1Cc1ccccc1
MIC (Clostridioides difficile): 1 µg/mL (≈ 1.41 µM)
MIC (Pseudomonas aeruginosa [7]): 6 µg/mL (≈ 8.49 µM)
MIC (Staphylococcus aureus [8]): 0.16 µg/mL (≈ 0.226 µM)
MIC (Klebsiella pneumoniae [9]): 1.5 µg/mL (≈ 2.12 µM)
MIC [10]: 0.75 µg/mL (≈ 1.06 µM)
MIC (Enterococcus): 0.75 µg/mL (≈ 1.06 µM)
MIC (Escherichia coli [11]): 1.5 µg/mL (≈ 2.12 µM)

Molecule: CCCCCCCCCCCCCCCC(=O)N[C@@H](CCCCN)C(=O)N[C@@H](Cc1ccccc1)CN(CC(N)=O)C(=O)CCCN
MIC [12]: 2 µg/mL (≈ 3.04 µM)
HC50 at 10 min [13]: 150 µg/mL
MIC (Escherichia coli [14]): 4 µg/mL (≈ 6.07 µM)
MIC (Pseudomonas aeruginosa [15]): 2 µg/mL (≈ 3.04 µM)
MIC (Enterococcus faecalis): 2 µg/mL (≈ 3.04 µM)
MIC (Staphylococcus aureus [16]): 2 µg/mL (≈ 3.04 µM)

Molecule: CC(C)NC(=O)N[C@H](CNC(=O)N[C@@H](CCCCN)CNC(=N)N[C@H](CNC(=O)N[C@H](CNC(=O)N[C@@H](CCCCN)CNC(=O)N[C@H](CNC(=O)N[C@@H](CCCCN)CNC(N)=O)Cc1c[nH]c2ccccc12)C(C)C)Cc1c[nH]c2ccccc12)C(C)C
MIC (Staphylococcus aureus [1]): 32 µg/mL (≈ 25.4 µM)
MIC (Escherichia coli [2]): 64 µg/mL (≈ 50.8 µM)
MIC (Pseudomonas aeruginosa [17]): 256 µg/mL (≈ 203 µM)

Molecule: CC(C)(C)c1cc(NC(=O)c2cc(OCCN)cc(C(=O)Nc3cc(C(C)(C)C)cc(NC(=O)[C@H](N)CCCNC(=N)N)c3SCCN)c2)c(SCCN)c(NC(=O)[C@H](N)CCCNC(=N)N)c1
MIC (Staphylococcus aureus [1]): 12.5 µg/mL (≈ 12.8 µM)
MIC (Escherichia coli [2]): 12.5 µg/mL (≈ 12.8 µM)

Molecule: COC(=O)[C@@H]1CCCCc2cc3ccccc3c(c2OC)-c2c(OC)c(cc3ccccc23)CC(NC(C)=O)C(=O)N[C@H](CCCCN)C(=O)N1 (some centres undefined)
MIC (Staphylococcus aureus [1]): 15 µg/mL (≈ 21.5 µM)

Molecule: N=C(N)NCCC[C@@H]1NC(=O)[C@H](CCCNC(=N)N)NC(=O)[C@H](CCCNC(=N)N)NC(=O)[C@H](Cc2ccc3ccccc3c2)NC(=O)[C@H](Cc2ccc3ccccc3c2)NC(=O)[C@H](Cc2ccc3ccccc3c2)NC(=O)[C@H](CCCNC(=N)N)NC1=O (cyclo(RRRR[2Nal][2Nal][2Nal]))
MIC (Staphylococcus aureus [21]): 3.1 µg/mL (≈ 2.55 µM)
MIC (Escherichia coli [22]): 12.5 µg/mL (≈ 10.3 µM)

Molecule: N=C(N)NCCC[C@@H]1NC(=O)[C@H](CCCNC(=N)N)NC(=O)[C@H](CCCNC(=N)N)NC(=O)[C@H](C(c2ccccc2)c2ccccc2)NC(=O)[C@H](C(c2ccccc2)c2ccccc2)NC(=O)[C@H](C(c2ccccc2)c2ccccc2)NC(=O)[C@H](CCCNC(=N)N)NC1=O (cyclo(RRRR[Dip][Dip][Dip]))
MIC (Staphylococcus aureus [21]): 3.1 µg/mL (≈ 2.39 µM)
MIC (Escherichia coli [22]): 12.5 µg/mL (≈ 9.66 µM)

Further lines, with some results ahead:

MIC (Staphylococcus aureus [1]): 2.5 µg/mL (≈ 4.05 µM)
MIC (Escherichia coli [2]): 10 µg/mL (≈ 16.2 µM)
Molecule: CC(C)(C)c1cc(C(C)(C)C)c2[nH]c(C(C)(C)C)c(C[C@H](N)C(=O)N[C@@H](CCCNC(=N)N)C(=O)NCc3ccccc3)c2c1

MIC (Staphylococcus aureus [1]): 5 µg/mL (≈ 7.15 µM)
MIC (Escherichia coli [2]): 20 µg/mL (≈ 28.6 µM)
Molecule: COC(=O)[C@H](CCCNC(=N)N)NC(=O)[C@H](Cc1c(C(C)(C)C)[nH]c2c(C(C)(C)C)cc(C(C)(C)C)cc12)NC(=O)[C@@H](N)CCCNC(=N)N

MIC (Escherichia coli [5]): 16 µg/mL
MIC (Staphylococcus aureus [6]): 16 µg/mL
Molecule: CCCOc1c2cc(C[N+](C)(C)C)cc1Cc1cc(C[N+](C)(C)C)cc(c1OCCC)Cc1cc(C[N+](C)(C)C)cc(c1OCCC)Cc1cc(C[N+](C)(C)C)cc(c1OCCC)C2

MIC (Escherichia coli [2]): 19 µg/mL (≈ 25.2 µM)
MIC (Klebsiella pneumoniae [18]): 66 µg/mL (≈ 87.4 µM)
Molecule: CC(=O)c1cccc(C(=O)Nc2cc(C(C)(C)C)cc(NC(=O)c3cccc(C(=O)Nc4cc(C(C)(C)C)cc(N)c4SCCN)c3)c2SCCN)c1

MIC (Staphylococcus aureus [1]): 0.2 µg/mL (≈ 0.205 µM)
MIC (Escherichia coli [2]): 3.1 µg/mL (≈ 3.18 µM)
MIC (Pseudomonas aeruginosa [17]): 13 µg/mL (≈ 13.3 µM)
Molecule: COc1cc(OC)c(C(=O)Nc2cc(C(F)(F)F)cc(NC(=O)CCCCNC(=N)N)c2SCCN)cc1C(=O)Nc1cc(C(F)(F)F)cc(NC(=O)CCCCNC(=N)N)c1SCCN
EC50 [19]: > 2000 µg/mL
EC50 [20]: > 2000 µg/mL

MIC (Staphylococcus aureus [1]): 2.5 µg/mL (≈ 3.17 µM)
MIC (Escherichia coli [2]): 7.5 µg/mL (≈ 9.52 µM)
Molecule: CC(C)(C)c1cc(C(C)(C)C)c2[nH]c(C(C)(C)C)c(C[C@H](NC(=O)[C@@H](N)CCCNC(=N)N)C(=O)N[C@@H](CCCNC(=N)N)C(=O)NCCc3ccccc3)c2c1 [LTX-109]

MIC (Staphylococcus aureus [1]): 10 µg/mL
MIC (Escherichia coli [2]): 15 µg/mL
Molecule: H-WRWRW-NH2
